Data from patent US10570457B2, “Methods for predicting drug responsiveness” (Medical Prognosis Institute A/S, priority 2014, dated 2020).

Columns and labels:
[1] = system: colorectal cancer patients; test: Survival of colon cancer patients treated with 5-FU, grouped by NT5E-predicted sensitivity; format: in vivo, human; details: adjuvant chemotherapy with 5-FU; NT5E expression below vs above population median; 232 colorectal cancer biopsies; p=0.006
Experimental: A clinical dataset of 232 pre-treatment fresh frozen colorectal cancer surgical biopsies was downloaded from Gene Expression Omnibus under accession number GSE17538. The biopsies were analyzed using the Affymetrix HG-U133-Plus_2 array type. The expression of NT5E was determined by reading the intensity of Affymetrix probeset 203939_at, which is predicted to be more highly expressed in 5-FU-resistant patients. Patients were predicted sensitive to 5-FU if the expression of NT5E was below the population median. Patients were predicted resistant if expression of NT5E was above the population median.

[2] = system: colorectal cancer; details: cited from earlier work
[3] = biological target: T1, topoisomerase I (Homo sapiens, UniProt P11387); details: metabolite of irinotecan; cited from earlier work
T1 sequence (P11387 1-765): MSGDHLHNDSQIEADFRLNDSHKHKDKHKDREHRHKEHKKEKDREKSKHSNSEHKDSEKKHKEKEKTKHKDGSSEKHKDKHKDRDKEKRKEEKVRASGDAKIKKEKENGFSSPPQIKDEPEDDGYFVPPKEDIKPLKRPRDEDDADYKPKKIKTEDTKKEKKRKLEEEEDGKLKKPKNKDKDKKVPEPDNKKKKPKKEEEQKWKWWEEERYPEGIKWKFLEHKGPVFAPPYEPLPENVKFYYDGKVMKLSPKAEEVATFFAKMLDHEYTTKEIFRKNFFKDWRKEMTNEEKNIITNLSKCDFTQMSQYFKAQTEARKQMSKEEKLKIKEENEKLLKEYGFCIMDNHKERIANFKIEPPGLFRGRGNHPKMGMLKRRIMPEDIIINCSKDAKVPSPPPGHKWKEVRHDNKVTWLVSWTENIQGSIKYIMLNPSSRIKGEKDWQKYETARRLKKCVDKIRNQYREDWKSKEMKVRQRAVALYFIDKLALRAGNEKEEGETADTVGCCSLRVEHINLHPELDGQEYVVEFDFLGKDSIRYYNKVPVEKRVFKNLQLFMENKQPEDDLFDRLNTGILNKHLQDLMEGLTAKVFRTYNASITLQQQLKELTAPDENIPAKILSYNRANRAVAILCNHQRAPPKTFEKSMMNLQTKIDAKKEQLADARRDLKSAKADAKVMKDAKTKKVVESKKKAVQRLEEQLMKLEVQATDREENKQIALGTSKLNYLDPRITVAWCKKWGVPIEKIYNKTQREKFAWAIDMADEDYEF

| SMILES | Survival of predicted-sensitive group versus predicted-resistant group [1] | Survival effect of 5-FU treatment ([2]; adjuvant setting of colorectal cancer) | Response rate, 5-FU monotherapy ([2]; metastatic colorectal cancer) | Potency as a topoisomerase inhibitor relative to irinotecan [3] |
| --- | --- | --- | --- | --- |
| O=c1[nH]cc(F)c(=O)[nH]1 [5-Fluorouracil (5-FU), 5-fluorouracil] | significantly higher rate of survival | survival benefit | 10-15% | – |
| CCc1c2c(nc3ccc(O)cc13)-c1cc3c(c(=O)n1C2)COC(=O)[C@]3(O)CC [SN-38] | – | – | – | significantly greater potency |
